{"source": "paper PMC4979471", "about": "(Cell Death Discovery, 2015)", "experiment_in_all_cases": "Kinase selectivity, P33-radiolabeled assay", "format_in_all_cases": "biochemical", "settings_in_all_cases": "10 μM ATP", "key": {"CK1a1": {"molecular_target": "T1, CK1a1 (Homo sapiens, UniProt P48729)", "T1 construct": "purchased Reaction Biology Corp", "T1 sequence (P48729 whole entry)": "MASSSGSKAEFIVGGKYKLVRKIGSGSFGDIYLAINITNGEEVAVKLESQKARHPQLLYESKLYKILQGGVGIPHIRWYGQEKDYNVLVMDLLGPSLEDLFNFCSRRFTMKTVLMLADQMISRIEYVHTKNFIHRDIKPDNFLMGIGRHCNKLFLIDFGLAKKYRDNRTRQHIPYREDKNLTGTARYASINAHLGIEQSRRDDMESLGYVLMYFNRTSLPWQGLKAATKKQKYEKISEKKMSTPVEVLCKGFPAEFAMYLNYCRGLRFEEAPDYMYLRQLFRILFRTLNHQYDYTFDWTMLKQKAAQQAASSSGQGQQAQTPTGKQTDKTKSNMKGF", "summary_of_the_method": "(§1)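 ATP at 10 μM; test article at 10 μM, single point, two replicates. Output is activity as % of DMSO.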"}, "MYLK3": {"molecular_target": "T2, MYLK3 (Homo sapiens, UniProt Q32MK0)", "T2 construct": "purchased Reaction Biology Corp", "T2 sequence (Q32MK0 1-819)": "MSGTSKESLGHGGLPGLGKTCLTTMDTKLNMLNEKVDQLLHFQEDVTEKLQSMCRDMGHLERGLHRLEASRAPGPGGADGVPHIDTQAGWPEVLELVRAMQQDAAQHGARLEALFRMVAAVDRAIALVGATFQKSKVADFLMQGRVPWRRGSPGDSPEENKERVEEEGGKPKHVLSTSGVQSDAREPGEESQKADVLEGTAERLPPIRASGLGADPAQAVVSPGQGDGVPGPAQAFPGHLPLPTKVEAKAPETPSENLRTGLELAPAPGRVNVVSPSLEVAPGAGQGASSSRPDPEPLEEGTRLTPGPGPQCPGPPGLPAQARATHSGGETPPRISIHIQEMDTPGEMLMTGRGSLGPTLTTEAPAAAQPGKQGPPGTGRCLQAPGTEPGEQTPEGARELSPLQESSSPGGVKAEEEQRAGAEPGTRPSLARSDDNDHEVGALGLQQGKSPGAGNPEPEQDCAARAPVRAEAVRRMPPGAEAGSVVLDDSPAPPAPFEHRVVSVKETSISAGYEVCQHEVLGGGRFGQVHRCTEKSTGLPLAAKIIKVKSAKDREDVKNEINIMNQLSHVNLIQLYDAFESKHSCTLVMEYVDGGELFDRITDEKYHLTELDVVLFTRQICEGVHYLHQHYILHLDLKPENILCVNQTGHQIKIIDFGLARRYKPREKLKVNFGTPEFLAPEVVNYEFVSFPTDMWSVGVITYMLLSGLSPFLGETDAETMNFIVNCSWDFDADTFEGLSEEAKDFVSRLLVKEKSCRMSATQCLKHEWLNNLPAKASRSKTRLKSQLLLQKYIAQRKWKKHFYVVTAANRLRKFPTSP", "summary_of_the_method": "as §1"}, "MLK3/MAP3K11": {"molecular_target": "T3, MLK3/MAP3K11 (Homo sapiens, UniProt Q16584)", "T3 construct": "purchased Reaction Biology Corp", "T3 sequence (Q16584 whole entry)": "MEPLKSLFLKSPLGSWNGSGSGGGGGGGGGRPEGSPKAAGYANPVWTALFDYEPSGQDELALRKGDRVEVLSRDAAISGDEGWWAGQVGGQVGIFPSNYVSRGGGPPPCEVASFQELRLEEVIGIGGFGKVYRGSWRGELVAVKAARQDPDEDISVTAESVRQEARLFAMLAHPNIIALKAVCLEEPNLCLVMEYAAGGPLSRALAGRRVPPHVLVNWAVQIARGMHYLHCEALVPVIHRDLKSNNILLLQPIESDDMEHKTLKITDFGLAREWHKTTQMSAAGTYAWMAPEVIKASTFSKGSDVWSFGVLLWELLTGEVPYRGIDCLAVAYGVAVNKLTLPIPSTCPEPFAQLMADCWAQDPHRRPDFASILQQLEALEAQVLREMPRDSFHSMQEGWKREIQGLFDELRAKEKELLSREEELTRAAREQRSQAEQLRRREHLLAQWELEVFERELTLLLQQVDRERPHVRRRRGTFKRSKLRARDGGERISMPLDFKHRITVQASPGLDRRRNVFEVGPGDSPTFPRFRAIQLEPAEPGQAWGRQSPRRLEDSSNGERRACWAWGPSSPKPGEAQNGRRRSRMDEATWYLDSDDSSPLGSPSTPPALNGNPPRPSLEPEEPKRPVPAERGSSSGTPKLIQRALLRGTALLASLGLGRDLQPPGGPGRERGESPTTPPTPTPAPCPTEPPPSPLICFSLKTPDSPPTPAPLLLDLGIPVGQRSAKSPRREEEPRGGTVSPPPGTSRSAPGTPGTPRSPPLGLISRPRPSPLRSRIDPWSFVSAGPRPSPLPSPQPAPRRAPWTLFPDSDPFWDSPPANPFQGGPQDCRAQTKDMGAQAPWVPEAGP", "summary_of_the_method": "as §1"}, "TLK1": {"molecular_target": "T4, TLK1 (Homo sapiens, UniProt Q9UKI8)", "T4 construct": "purchased Reaction Biology Corp", "T4 sequence (Q9UKI8 1-766)": "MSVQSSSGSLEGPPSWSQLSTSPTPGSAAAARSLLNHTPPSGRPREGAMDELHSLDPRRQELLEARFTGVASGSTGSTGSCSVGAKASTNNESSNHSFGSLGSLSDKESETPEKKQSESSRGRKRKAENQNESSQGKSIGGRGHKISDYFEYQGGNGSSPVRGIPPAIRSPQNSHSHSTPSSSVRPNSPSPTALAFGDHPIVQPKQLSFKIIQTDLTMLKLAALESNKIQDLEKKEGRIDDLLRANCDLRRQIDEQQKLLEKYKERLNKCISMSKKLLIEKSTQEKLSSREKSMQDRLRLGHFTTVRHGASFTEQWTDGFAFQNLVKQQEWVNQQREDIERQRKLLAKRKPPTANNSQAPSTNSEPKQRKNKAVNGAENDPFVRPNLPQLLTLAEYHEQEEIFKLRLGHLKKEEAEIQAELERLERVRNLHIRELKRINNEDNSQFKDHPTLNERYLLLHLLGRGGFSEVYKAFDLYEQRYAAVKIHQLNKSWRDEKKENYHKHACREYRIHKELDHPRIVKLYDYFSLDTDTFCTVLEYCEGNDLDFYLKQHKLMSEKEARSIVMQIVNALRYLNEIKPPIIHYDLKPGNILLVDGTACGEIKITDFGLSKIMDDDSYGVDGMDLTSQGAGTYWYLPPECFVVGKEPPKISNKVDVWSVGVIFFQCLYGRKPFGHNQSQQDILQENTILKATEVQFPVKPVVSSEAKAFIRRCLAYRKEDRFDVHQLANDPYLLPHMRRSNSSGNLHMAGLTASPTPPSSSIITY", "summary_of_the_method": "as §1"}, "CTK/MATK": {"molecular_target": "T5, CTK/MATK (Homo sapiens, UniProt P42679)", "T5 construct": "purchased Reaction Biology Corp", "T5 sequence (P42679 1-507)": "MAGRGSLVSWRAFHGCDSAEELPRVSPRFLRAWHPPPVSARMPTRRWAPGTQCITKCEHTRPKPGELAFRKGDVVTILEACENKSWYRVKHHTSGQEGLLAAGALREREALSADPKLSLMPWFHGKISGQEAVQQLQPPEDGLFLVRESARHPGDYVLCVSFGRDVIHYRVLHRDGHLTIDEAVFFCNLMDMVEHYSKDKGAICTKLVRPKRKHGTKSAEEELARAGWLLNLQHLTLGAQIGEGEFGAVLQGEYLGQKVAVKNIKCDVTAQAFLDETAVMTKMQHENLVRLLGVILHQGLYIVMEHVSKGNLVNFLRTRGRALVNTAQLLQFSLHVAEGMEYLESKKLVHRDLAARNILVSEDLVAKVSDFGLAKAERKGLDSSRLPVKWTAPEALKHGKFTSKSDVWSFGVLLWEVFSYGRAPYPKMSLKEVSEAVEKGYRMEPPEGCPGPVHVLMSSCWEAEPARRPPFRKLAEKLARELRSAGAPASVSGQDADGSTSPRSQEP", "summary_of_the_method": "as §1"}, "PAK1": {"molecular_target": "T6, PAK1 (Homo sapiens, UniProt Q13153)", "T6 construct": "purchased Reaction Biology Corp", "T6 sequence (Q13153 whole entry)": "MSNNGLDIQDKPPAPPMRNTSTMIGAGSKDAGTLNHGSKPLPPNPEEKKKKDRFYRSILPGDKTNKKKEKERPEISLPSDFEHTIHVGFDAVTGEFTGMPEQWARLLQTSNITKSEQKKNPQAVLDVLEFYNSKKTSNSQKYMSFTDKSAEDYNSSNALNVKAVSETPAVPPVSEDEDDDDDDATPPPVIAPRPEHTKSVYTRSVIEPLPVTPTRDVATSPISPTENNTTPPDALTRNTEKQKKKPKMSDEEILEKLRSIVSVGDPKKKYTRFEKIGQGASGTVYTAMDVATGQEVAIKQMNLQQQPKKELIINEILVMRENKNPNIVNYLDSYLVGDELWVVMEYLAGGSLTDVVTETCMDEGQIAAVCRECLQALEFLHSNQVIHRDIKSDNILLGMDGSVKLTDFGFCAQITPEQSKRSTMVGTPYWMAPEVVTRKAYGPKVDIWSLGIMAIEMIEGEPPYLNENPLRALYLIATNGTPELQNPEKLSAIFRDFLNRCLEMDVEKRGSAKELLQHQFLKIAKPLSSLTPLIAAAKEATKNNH", "summary_of_the_method": "as §1"}, "MSK2/RPS6KA4": {"molecular_target": "T7, MSK2/RPS6KA4 (Homo sapiens, UniProt O75676)", "T7 construct": "purchased Reaction Biology Corp", "T7 sequence (O75676 whole entry)": "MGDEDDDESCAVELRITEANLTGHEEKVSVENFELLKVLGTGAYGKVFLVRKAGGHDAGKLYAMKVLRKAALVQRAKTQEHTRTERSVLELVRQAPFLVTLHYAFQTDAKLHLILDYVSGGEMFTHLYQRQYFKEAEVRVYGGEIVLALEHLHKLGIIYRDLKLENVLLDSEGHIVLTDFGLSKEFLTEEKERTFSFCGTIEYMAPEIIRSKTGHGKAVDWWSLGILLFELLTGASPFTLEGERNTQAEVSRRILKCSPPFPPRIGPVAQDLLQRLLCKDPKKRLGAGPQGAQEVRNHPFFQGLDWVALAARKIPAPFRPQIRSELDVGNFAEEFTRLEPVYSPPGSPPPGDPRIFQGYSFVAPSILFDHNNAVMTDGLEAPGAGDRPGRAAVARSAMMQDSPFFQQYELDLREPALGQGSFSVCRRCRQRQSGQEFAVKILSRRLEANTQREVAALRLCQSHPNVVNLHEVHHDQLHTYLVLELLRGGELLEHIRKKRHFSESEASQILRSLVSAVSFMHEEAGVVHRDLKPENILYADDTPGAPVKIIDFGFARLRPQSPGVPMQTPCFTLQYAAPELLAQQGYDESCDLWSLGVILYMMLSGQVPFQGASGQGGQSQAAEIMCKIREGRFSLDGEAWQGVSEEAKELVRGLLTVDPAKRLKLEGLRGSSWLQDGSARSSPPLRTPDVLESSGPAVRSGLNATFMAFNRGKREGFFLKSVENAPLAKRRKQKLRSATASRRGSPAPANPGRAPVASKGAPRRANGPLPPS", "summary_of_the_method": "as §1"}, "PDGFRa": {"molecular_target": "T8, PDGFRa (Homo sapiens, UniProt P16234)", "T8 construct": "purchased Reaction Biology Corp", "T8 sequence (P16234 24-1089)": "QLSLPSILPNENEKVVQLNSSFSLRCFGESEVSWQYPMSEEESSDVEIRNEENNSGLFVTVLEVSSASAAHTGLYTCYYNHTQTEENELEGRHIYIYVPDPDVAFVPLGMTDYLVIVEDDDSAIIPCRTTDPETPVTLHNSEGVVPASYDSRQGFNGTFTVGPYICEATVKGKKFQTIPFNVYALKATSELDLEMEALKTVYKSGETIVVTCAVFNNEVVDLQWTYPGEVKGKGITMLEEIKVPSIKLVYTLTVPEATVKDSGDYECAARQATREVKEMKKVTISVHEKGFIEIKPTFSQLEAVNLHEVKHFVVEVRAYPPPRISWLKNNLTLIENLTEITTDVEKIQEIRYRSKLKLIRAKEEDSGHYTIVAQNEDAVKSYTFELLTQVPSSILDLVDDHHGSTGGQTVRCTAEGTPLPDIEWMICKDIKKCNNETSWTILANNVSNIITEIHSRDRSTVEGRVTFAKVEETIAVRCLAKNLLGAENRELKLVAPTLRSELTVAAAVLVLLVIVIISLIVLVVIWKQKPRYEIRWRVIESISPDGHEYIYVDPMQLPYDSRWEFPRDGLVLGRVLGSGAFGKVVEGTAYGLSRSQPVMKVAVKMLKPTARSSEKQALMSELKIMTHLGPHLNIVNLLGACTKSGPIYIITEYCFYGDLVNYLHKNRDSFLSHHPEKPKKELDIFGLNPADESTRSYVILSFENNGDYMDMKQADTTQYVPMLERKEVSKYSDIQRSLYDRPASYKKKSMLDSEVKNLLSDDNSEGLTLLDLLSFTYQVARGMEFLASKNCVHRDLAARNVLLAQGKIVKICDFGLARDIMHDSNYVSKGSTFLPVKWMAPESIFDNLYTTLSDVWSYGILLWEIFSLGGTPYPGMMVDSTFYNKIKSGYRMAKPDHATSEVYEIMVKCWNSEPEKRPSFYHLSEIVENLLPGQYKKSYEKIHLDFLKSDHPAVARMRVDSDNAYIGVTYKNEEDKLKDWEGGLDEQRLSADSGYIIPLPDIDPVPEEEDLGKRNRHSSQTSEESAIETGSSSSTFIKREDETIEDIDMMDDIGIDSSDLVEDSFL", "summary_of_the_method": "as §1"}, "RIPK3": {"molecular_target": "T9, RIPK3 (Homo sapiens, UniProt Q9Y572)", "T9 construct": "purchased Reaction Biology Corp", "T9 sequence (Q9Y572 whole entry)": "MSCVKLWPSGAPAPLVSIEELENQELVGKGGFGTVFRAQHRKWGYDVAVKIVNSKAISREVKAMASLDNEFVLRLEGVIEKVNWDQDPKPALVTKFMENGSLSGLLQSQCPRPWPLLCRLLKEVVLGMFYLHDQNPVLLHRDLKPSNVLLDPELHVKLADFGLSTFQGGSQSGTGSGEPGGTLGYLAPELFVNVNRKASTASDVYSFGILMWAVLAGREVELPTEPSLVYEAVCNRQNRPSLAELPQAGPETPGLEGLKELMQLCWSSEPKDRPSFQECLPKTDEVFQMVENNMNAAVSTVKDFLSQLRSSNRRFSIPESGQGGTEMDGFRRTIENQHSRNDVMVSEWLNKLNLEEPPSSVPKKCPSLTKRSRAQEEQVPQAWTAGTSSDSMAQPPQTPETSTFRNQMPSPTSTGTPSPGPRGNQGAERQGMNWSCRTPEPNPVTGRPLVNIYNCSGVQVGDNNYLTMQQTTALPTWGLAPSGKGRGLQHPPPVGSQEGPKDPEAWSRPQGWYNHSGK", "summary_of_the_method": "as §1"}, "[1]": {"settings": "read-out: % Enzyme Activity (relative to DMSO controls) AVG"}, "[2]": {"settings": "read-out: % Enzyme Activity (relative to DMSO controls) Data 1"}, "[3]": {"settings": "read-out: % Enzyme Activity (relative to DMSO controls) Data 2"}}, "note": "Read-outs that look alike come from different tables or passages of the source."}
{"smiles": "CC(C)(C)C(=O)N1N=CC[C@H]1c1ccccc1", "note": "[GSK′963]", "values": [{"measurement": "remaining activity at 10 µM", "setting": "CK1a1; [1]", "value": 103, "unit": "%"}, {"measurement": "remaining activity at 10 µM", "setting": "CK1a1; [2]", "value": 102, "unit": "%"}, {"measurement": "remaining activity at 10 µM", "setting": "CK1a1; [3]", "value": 103, "unit": "%"}, {"measurement": "remaining activity at 10 µM", "setting": "MYLK3; [1]", "value": 102, "unit": "%"}, {"measurement": "remaining activity at 10 µM", "setting": "MYLK3; [2]", "value": 99.7, "unit": "%"}, {"measurement": "remaining activity at 10 µM", "setting": "MYLK3; [3]", "value": 105, "unit": "%"}, {"measurement": "remaining activity at 10 µM", "setting": "MLK3/MAP3K11; [1]", "value": 95, "unit": "%"}, {"measurement": "remaining activity at 10 µM", "setting": "MLK3/MAP3K11; [2]", "value": 96, "unit": "%"}, {"measurement": "remaining activity at 10 µM", "setting": "MLK3/MAP3K11; [3]", "value": 94, "unit": "%"}, {"measurement": "remaining activity at 10 µM", "setting": "TLK1; [1]", "value": 97.5, "unit": "%"}, {"measurement": "remaining activity at 10 µM", "setting": "TLK1; [2]", "value": 101, "unit": "%"}, {"measurement": "remaining activity at 10 µM", "setting": "TLK1; [3]", "value": 93.9, "unit": "%"}, {"measurement": "remaining activity at 10 µM", "setting": "CTK/MATK; [1]", "value": 93, "unit": "%"}, {"measurement": "remaining activity at 10 µM", "setting": "CTK/MATK; [2]", "value": 91.5, "unit": "%"}, {"measurement": "remaining activity at 10 µM", "setting": "CTK/MATK; [3]", "value": 94.5, "unit": "%"}, {"measurement": "remaining activity at 10 µM", "setting": "PAK1; [1]", "value": 92.8, "unit": "%"}, {"measurement": "remaining activity at 10 µM", "setting": "PAK1; [2]", "value": 92.5, "unit": "%"}, {"measurement": "remaining activity at 10 µM", "setting": "PAK1; [3]", "value": 93, "unit": "%"}, {"measurement": "remaining activity at 10 µM", "setting": "MSK2/RPS6KA4; [1]", "value": 104, "unit": "%"}, {"measurement": "remaining activity at 10 µM", "setting": "MSK2/RPS6KA4; [2]", "value": 104, "unit": "%"}, {"measurement": "remaining activity at 10 µM", "setting": "MSK2/RPS6KA4; [3]", "value": 103, "unit": "%"}, {"measurement": "remaining activity at 10 µM", "setting": "PDGFRa; [1]", "value": 104, "unit": "%"}, {"measurement": "remaining activity at 10 µM", "setting": "PDGFRa; [2]", "value": 101, "unit": "%"}, {"measurement": "remaining activity at 10 µM", "setting": "PDGFRa; [3]", "value": 106, "unit": "%"}, {"measurement": "remaining activity at 10 µM", "setting": "RIPK3; [1]", "value": 99.3, "unit": "%"}, {"measurement": "remaining activity at 10 µM", "setting": "RIPK3; [2]", "value": 100, "unit": "%"}, {"measurement": "remaining activity at 10 µM", "setting": "RIPK3; [3]", "value": 98.7, "unit": "%"}]}
